These results are taken from patent publication US12016829B2, “Pharmaceutical composition and method for treating seizure disorders” (Pike Therapeutics Inc, priority 2019, dated 2024).

The conditions of data set [1]: cited from earlier work.
The conditions of data set [2]: significant number of patients, cited from earlier work.
The nature of data set [3]: Oral bioavailability, AUC and plasma concentration of CBD. Format: in vivo, patient. The source says: When a medication is orally administered, its bioavailability generally decreases due to incomplete absorption and first-pass metabolism and may vary from patient to patient. The compositions of the disclosure overcome these problems because in transdermal delivery, active agent is delivered directly into systemic circulation through the skin, and it escapes the first pass hepatic metabolism therefore to achieve the desired therapeutic activity less drug is required, resulting into less adverse effects or side effects.
So, the actual dose delivering to patient upon oral delivery is described in Table 3
So, 50 sqcm patch with 7.5 ug/sqcm/hr flux will deliver 9 mg of drug in one day. And 100 sqcm of patch will deliver 18 mg of drug with same flux profile.

Read-outs that look alike come from different tables or passages of the source.

A word on the bioavailability: it is the share of a dose that reaches the circulation, judged against a reference dose that is usually intravenous. Regarding `C=C(C)[C@@H]1CCC(C)=C[C@H]1c1c(O)cc(CCCCC)cc1O` [CBD, 2-[(1R,6R)-6-isopropenyl-3-methylcyclohex-2-en-1-yl]-5-pentylbenzene-1,3-diol], the “Oral AUC” value in data set [1] (oral dose 5 mg/kg/day) is 241 ng·h/mL; in data set [1] (oral dose 10 mg/kg/day), 722 ng·h/mL. Further, in data set [2] (TRE (Dravet syndrome, myoclonic absence seizures, FIRES)), the “reduction of total convulsive frequency” value is “greater than 50%”. For the same compound, the “seizure status at the end of three months treatment” value in data set [2] is on record as “seizure free”. The bioavailability in data set [3] (human, in vivo, oral, read-out: average bioavailability taken for calculation) is 15%. Besides, the “Avg. Oral Plasma Concentration” value turned out to be 10.0 ng/mL in data set [3] (oral dose 5 mg/kg/day) and 30.0 ng/mL in data set [3] (oral dose 10 mg/kg/day).
For `CCCCCc1cc(O)c2c(c1)OC(C)(C)c1ccc(C)cc1-2` [Cannabinol], the “share of the administered dose that reaches systemic circulation” value in data set [1] (oral administration, hepatic first pass metabolism) was 10%-20%.
